Source: ChEMBL document CHEMBL1137710, “Synthesis and in vitro antitumor activity of new quinoxaline derivatives” (2009)

Legend:
Type in all cases: functional
NCI-H460 = assay: Anticancer activity against human NCI-H460 cells assessed as cell growth at 100 uM after 48 hrs by sulforhodamine B assay; conditions: NCI-H460, 48 h, read-out: Activity
SF-268 = assay: Anticancer activity against human SF268 cells assessed as cell growth at 100 uM after 48 hrs by sulforhodamine B assay; conditions: SF-268, 48 h, read-out: Activity
MCF7 = assay: Anticancer activity against human MCF7 cells assessed as cell growth at 100 uM after 48 hrs by sulforhodamine B assay; conditions: MCF7, 48 h, read-out: Activity

COc1ccc(Oc2nc3cc(N)cc(N)c3nc2-c2ccccc2)cc1OC
growth at 100 µM (NCI-H460): 118%
growth at 100 µM (SF-268): 131%
growth at 100 µM (MCF7): 117%

COc1ccc(Sc2nc3cc(N)cc(N)c3nc2-c2ccccc2)cc1OC
growth at 100 µM (NCI-H460): 119%
growth at 100 µM (SF-268): 136%
growth at 100 µM (MCF7): 121%
